Data: patent publication US20260317344A1, “EGFR INHIBITORS FOR TREATING DISEASE” (BLOSSOMHILL THERAPEUTICS, INC., priority 2023, published 2026)

Assays:
[1] = target: T1, pEGFR, A431 cells (wildtype EGFR) (Homo sapiens, UniProt P00533); assay: Cellular EGFR phosphorylation assay (LANCE Ultra TR-FRET) in A431 cells; assay type: cell-based; conditions: 4 hours at 37° C., 40 ng/mL EGF for the final 10 minutes, read-out: A431 pEGFR IC50
T1 construct: pEGFR (Tyr1068) TR-FRET
Outline: (§1)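 Phospho-EGFR (Tyr1068) measured by TR-FRET in lysates after 4 h compound exposure at 37° C (9 doses, 3-fold steps). A431 cells, seeded at 30 thousand per well, received 40 ng/mL EGF for the last 10 min; PC-9 and NCI-H1975 seeded at 50 thousand per well, unstimulated. IC50 values reported.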

EGFR (L858R/T790M) = EGFR (L858R/T790M) (Homo sapiens, UniProt P00533, L858R/T790M); assay: HotSpot radiometric kinase assay, inhibition of EGFR L858R/T790M mutant; assay type: biochemical; conditions: 33P ATP, room temperature, 120 m
Outline: (§2)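 Radiometric filter-binding format: ATP plus 33P-ATP ([…]) was added about 20 min after compound to kinase and substrate in HEPES pH 7.5 buffer with Mg2+, EGTA, Brij35, BSA, vanadate, DTT and 1% DMSO. After 120 min at room temperature, reactions were spotted on P81 paper and washed in phosphoric acid; IC50 values fitted.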

[2] = test system: BaF3 cells with engineered EGFR d746-750/T790M; assay: 3-Day CellTiter Glo (CTG) cell proliferation assay, BaF3 EGFR d746-750/T790M; assay type: cell-based; conditions: Mus musculus; BaF3 EGFR d746-750/T790M cells, 3-day CTG proliferation, 72 hours
Outline: (§3)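 Viability after 72 h compound exposure (9 concentrations, 37° C, 5% CO2) was measured as ATP luminescence with CellTiter-Glo 2.0 in EGFR-mutant-engineered BaF3 cells plated at one thousand cells per well. IC50 values obtained by curve fitting.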

[3] = test system: BaF3 cells with engineered EGFR L858R/T790M/C797S; assay: 3-Day CellTiter Glo (CTG) cell proliferation assay, BaF3 EGFR L858R/T790M/C797S; assay type: cell-based; conditions: Mus musculus, 3-day CTG proliferation, 72 hours
Outline: as §3

EGFR (D770_N771insNPG) = EGFR (D770_N771insNPG) (Homo sapiens, UniProt P00533, INS770NPG); assay: HotSpot radiometric kinase assay, inhibition of EGFR (D770_N771insNPG) mutant; assay type: biochemical; conditions: 33P ATP, room temperature, 120 m
Sequence of EGFR (D770_N771insNPG) (P00533 with tags, fused parts or gaps INS770NPG limits assumed): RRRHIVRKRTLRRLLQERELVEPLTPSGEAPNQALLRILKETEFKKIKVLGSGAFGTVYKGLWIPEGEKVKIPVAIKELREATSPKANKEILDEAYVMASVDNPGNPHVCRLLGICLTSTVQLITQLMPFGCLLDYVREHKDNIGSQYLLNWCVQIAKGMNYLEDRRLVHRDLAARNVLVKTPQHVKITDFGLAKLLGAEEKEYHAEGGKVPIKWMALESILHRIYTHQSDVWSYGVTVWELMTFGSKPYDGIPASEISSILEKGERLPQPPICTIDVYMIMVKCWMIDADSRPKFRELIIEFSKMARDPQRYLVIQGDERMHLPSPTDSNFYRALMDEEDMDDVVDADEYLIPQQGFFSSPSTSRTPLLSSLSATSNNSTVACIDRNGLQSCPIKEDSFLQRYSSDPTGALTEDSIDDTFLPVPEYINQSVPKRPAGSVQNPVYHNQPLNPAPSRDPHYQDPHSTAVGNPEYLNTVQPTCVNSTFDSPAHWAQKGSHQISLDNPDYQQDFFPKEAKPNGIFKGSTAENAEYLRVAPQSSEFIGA
Outline: as §2

NCI-H1975 cells = assay: 5-Day CellTiter Glo (CTG) cell proliferation assay, NCI-H1975; assay type: cell-based; conditions: Homo sapiens; NCI-H1975 cells (L858R/T790M EGFR), 5-day CTG proliferation, 120 hours; read-out: H1975 IC50
Outline: (§4)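 Proliferation of EGFR-driven NSCLC cells was scored as CellTiter-Glo 2.0 luminescence after a 5-day (120 h) incubation with compounds in 9 doses. IC50 values came from the dose-response curves.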

EGFR WT = EGFR WT (Homo sapiens, UniProt P00533); assay: HotSpot radiometric kinase assay, inhibition of EGFR WT; assay type: biochemical; conditions: 33P ATP, room temperature, 120 m
Sequence of EGFR WT (P00533 25-1210): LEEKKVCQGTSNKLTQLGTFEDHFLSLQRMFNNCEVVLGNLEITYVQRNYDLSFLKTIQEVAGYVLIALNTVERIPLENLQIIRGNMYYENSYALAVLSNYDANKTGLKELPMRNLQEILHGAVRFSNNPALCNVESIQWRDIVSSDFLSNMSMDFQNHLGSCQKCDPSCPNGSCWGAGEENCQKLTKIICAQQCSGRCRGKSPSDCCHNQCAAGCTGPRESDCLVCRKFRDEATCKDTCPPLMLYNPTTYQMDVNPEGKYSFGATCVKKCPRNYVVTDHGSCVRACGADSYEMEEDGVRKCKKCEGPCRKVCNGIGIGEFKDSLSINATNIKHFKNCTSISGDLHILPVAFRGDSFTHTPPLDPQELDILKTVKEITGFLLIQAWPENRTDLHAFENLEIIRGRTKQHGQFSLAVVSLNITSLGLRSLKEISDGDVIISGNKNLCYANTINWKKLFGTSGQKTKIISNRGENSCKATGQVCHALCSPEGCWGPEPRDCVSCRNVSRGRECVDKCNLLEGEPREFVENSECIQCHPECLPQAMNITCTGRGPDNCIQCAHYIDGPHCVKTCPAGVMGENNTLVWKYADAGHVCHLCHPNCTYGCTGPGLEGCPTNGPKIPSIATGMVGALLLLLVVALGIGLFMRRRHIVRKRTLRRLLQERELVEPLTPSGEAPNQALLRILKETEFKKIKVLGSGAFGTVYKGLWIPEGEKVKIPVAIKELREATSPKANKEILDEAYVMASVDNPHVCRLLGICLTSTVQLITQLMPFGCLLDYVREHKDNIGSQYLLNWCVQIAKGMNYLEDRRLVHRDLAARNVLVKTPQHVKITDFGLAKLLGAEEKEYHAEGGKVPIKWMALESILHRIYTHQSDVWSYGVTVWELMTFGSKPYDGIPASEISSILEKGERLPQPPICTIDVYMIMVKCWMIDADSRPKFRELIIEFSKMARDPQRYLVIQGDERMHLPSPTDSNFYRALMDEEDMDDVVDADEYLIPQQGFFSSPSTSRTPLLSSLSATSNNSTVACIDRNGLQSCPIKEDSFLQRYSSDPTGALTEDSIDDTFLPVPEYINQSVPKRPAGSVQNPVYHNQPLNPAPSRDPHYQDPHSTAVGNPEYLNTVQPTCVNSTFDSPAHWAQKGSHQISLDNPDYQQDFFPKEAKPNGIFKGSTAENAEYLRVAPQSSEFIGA
Outline: (§5)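 Kinase/substrate pairs in 20 mM HEPES pH 7.5, 10 mM MgCl2, 1 mM EGTA, 0.02% Brij35, 0.02 mg/ml BSA, 0.1 mM Na3VO4, 2 mM DTT, 1% DMSO, preincubated ~20 min with compound. Reaction started with ATP/33P-ATP ([…]), run 120 min at room temperature; phosphorylation read by P81 filter binding, IC50 from curve fits.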

EGFR (D746-750/C797S) = EGFR (D746-750/C797S) (Homo sapiens, UniProt P00533, C797S/DEL746-750); assay: HotSpot radiometric kinase assay, inhibition of EGFR 746-750/C797S mutant; assay type: biochemical; conditions: 33P ATP, room temperature, 120 m
Outline: as §2

EGFR (L858R/T790M/C797S) = EGFR (L858R/T790M/C797S) (Homo sapiens, UniProt P00533, C797S/L858R/T790M); assay: HotSpot radiometric kinase assay, inhibition of EGFR L858R/T790M/C797S mutant; assay type: biochemical; conditions: 33P ATP, room temperature, 120 m
Outline: as §2

[4] = test system: BaF3 cells with engineered EGFR L858R/C797S; assay: 3-Day CellTiter Glo (CTG) cell proliferation assay, BaF3 EGFR L858R/C797S; assay type: cell-based; conditions: Mus musculus, 3-day CTG proliferation, 72 hours
Outline: as §3

HCC827 cells = assay: 5-Day CellTiter Glo (CTG) cell proliferation assay, HCC827; assay type: cell-based; conditions: Homo sapiens; HCC827 cells (d746-750 EGFR), 5-day CTG proliferation, 120 hours; read-out: HCC827 IC50
Outline: as §4

EGFR (L858R) = EGFR (L858R) (Homo sapiens, UniProt P00533, L858R); assay: HotSpot radiometric kinase assay, inhibition of EGFR L858R mutant; assay type: biochemical; conditions: 33P ATP, room temperature, 120 m
Outline: as §5

[5] = target: T2, pEGFR, NCI-H1975 cells (L858R/T790M EGFR) (Homo sapiens, UniProt P00533, L858R/T790M); assay: Cellular EGFR phosphorylation assay (LANCE Ultra TR-FRET) in NCI-H1975 cells; assay type: cell-based; conditions: 4 hours at 37° C., read-out: H1975 pEGFR IC50
T2 construct: pEGFR (Tyr1068) TR-FRET
T2 sequence (P00533 25-1210 T790M/L858R): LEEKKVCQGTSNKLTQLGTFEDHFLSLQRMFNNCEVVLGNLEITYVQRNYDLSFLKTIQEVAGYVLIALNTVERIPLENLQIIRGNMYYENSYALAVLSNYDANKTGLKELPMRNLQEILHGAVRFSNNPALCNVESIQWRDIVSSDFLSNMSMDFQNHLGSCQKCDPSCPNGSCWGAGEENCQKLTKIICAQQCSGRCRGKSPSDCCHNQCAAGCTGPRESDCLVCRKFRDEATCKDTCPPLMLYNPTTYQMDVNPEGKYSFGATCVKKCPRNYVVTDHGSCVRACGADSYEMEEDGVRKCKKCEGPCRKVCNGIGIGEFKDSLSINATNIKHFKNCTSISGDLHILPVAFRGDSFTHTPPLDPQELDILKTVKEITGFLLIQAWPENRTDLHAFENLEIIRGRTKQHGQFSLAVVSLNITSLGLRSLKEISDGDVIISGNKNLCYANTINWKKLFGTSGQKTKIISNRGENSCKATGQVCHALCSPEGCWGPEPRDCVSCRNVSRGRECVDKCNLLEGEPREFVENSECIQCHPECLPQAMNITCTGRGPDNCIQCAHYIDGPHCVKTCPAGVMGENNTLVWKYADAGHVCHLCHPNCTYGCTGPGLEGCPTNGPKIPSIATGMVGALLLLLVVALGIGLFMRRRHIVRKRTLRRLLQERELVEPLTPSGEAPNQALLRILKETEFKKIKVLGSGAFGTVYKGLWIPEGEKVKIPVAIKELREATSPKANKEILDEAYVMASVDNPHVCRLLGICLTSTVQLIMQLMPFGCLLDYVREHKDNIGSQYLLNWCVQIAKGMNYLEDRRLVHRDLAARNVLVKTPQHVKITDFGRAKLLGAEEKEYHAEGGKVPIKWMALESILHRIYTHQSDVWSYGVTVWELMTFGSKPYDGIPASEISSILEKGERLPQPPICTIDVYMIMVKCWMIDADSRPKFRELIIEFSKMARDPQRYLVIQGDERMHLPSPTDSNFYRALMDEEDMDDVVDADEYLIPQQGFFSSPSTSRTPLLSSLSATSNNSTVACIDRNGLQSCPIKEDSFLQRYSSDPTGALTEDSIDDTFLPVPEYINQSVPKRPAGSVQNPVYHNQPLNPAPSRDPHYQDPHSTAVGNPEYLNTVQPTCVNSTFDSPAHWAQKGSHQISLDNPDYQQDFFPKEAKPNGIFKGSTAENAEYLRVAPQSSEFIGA
Outline: as §1

EGFR (D746-750) = EGFR (D746-750) (Homo sapiens, UniProt P00533, DEL746-750); assay: HotSpot radiometric kinase assay, inhibition of EGFR 746-750 mutant; assay type: biochemical; conditions: 33P ATP, room temperature, 120 m
Outline: as §2

[6] = target: T3, pEGFR, PC-9 cells (d746-750 EGFR) (Homo sapiens, UniProt P00533, DEL746-750); assay: Cellular EGFR phosphorylation assay (LANCE Ultra TR-FRET) in PC-9 cells; assay type: cell-based; conditions: 4 hours at 37° C., read-out: PC-9 pEGFR IC50
T3 construct: pEGFR (Tyr1068) TR-FRET
Outline: as §1

PC-9 cells = assay: 5-Day CellTiter Glo (CTG) cell proliferation assay, PC-9; assay type: cell-based; conditions: Homo sapiens; PC-9 cells (d746-750 EGFR), 5-day CTG proliferation, 120 hours; read-out: PC-9 IC50
Outline: as §4

T1 sequence (P00533 25-1210): as the sequence (P00533 25-1210) above

Row | IC50 [1] [nM] | IC50 (EGFR (L858R/T790M)) [nM] | IC50 [2] [nM] | IC50 [3] [nM] | IC50 (EGFR (D770_N771insNPG)) [nM] | IC50 (NCI-H1975 cells) [nM] | IC50 (EGFR WT) [nM] | IC50 (EGFR (D746-750/C797S)) [nM] | IC50 (EGFR (L858R/T790M/C797S)) [nM] | IC50 [4] [nM] | IC50 (HCC827 cells) [nM] | IC50 (EGFR (L858R)) [nM] | IC50 [5] [nM] | IC50 (EGFR (D746-750)) [nM] | IC50 [6] [nM] | IC50 (PC-9 cells) [nM] | Compound
1 | 19.1 | 1.84 | 1.7 | 1.57 | 1.51 | 28.6 | 1.13 | 1.54 | 0.99 | 0.41 | 0.68 | 1.11 | 3.01 | 1.24 | 3.09 | 4.66 | CCOc1nn(CCO)c2c1/C=C/c1n[nH]c3cnc(cc13)-c1c(C)nn(C)c1O[C@H](C)CN(C(C)C)C2 [Ex. 1, 2-[(10R,17E)-16-ethoxy-6,8,10-trimethyl-12-(propan-2-yl)-2,8,10,11,12,13-hexahydro-14H-5,3-(azenometheno)tripyrazolo[3,4-f:3′,4′-j:4″,3″-n][1,4]oxazacyclopentadecin-14-yl]ethan-1-ol]
2 | 19.8 | 1.38 | 0.66 | 1.93 | 0.68 | 27.1 | 0.45 | 1.43 | 4.57 | 0.34 | 0.88 | 0.62 | 5.22 | 0.66 | 4.37 | 5.56 | CCOc1nn(CCO)c2c1/C=C/c1n[nH]c3cnc(cc13)-c1c(C)nn(C)c1OC[C@H](C)N(CC)C2 [Ex. 16, 2-[(11S,17E)-16-ethoxy-12-ethyl-6,8,11-trimethyl-2,8,10,11,12,13-hexahydro-14H-5,3-(azenometheno)tripyrazolo[3,4-f:3′,4′-j:4″,3″-n][1,4]oxazacyclopentadecin-14-yl]ethan-1-ol]
